Data on 19 molecules can be found in paper PMC6804253, “Predicting and Experimentally Validating Hot-Spot Residues at Protein–Protein Interfaces” (ACS Chemical Biology, 2019).

Substitutions are numbered along the chain they refer to. Where two headings read alike, the source gives them in different places. Where a SMILES comes first, the peptide text is derived from it. Where no end group is shown, it is not given here. The star is where a group is joined. 5FAM = O=C1OC2(c3ccc(O)cc3Oc3cc(O)ccc32)c2ccc(C(=O)*)cc21; AEEA = NCCOCCOCC(=O)O

The test system of test [1] is PPIs of the SKEMPI data set (by PDBID). As to the kind of experiment: SKEMPI experimental ΔΔG, single mutations to alanine. It is filed as binding. Particulars: for sk_class (class of the SKEMPI experimental ΔΔG): Positive / Neutral / Negative by ΔΔG threshold 4.184 kJ/mol.
Test [2] shares this test system. The settings on record: cited from earlier work; for sk_ddG_kJ (SKEMPI experimental ΔΔG of binding, mutation to alanine): single mutation to alanine in the complex of the given PDBID.
For test [3] the test system is unchanged. The settings on record: Flex_ddG Talaris2014, 1 REU = 1 kcal/mol assumed; cited from earlier work.
Test [4] shares this test system. The settings on record: Flex_ddG Ref2015, 1 REU = 1 kcal/mol assumed; cited from earlier work.
The target of a further test is T1, SUMO-1 (Homo sapiens, UniProt P63165).
T1 construct: The pet19b His-TEV-SUMO-1 (18-97) construct was over-expressed; His-TEV (N, cleaved yes); made in house; host or cells: E. coli Rosetta 2
T1 sequence (P63165 18-97, species assumed): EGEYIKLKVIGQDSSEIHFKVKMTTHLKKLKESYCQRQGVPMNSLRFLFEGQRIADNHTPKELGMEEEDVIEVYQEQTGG
It is filed as binding.

The target of the next test is T2, SHANK-PDZ (Homo sapiens, UniProt Q9Y566).
T2 sequence (Q9Y566 656-762): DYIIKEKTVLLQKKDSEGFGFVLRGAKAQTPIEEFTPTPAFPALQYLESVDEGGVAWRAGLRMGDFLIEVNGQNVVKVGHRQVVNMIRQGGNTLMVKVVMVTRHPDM
The settings on record: for H (fitted ITC data): binding enthalpy from ITC fit; for H (fitted ITC data) / S (fitted ITC data): 20 mM Tris, 150 mM NaCl pH 7.5 at 25 °C; for S (fitted ITC data): binding entropy from ITC fit.

Setting [5] is: class of the experimental SKEMPI ΔΔG.
Setting [6] is: experimental ΔΔG of single mutation to alanine, SKEMPI database.
Setting [7] is: class of the SKEMPI experimental ΔΔG, ref SKEMPI.
The mark [8] stands for this setting: SKEMPI experimental ΔΔG of binding, single mutation to alanine, complex by PDBID, ref SKEMPI.

As for 1A22 PA5A, the sk_class entry in test [1] (setting [5]) was “Neutral (neutral (little effect) 4.184 kJ/mol < ΔΔG > −4.184 kJ/mol)”. Besides, the “sk_class (class of SKEMPI experimental ΔΔG)” value in test [2] (class by ΔΔG threshold 4.184 kJ/mol, ref SKEMPI) is “Neutral (neutral (little effect) 4.184 kJ/mol < ΔΔG > −4.184 kJ/mol)”. For the same molecule, in test [2] (setting [6]), the sk_ddG_kJ was 0.43 kcal/mol. Also, the “sk_ddG_kJ (SKEMPI experimental ΔΔG, mutation to alanine)” value in test [2] (single mutation to alanine, complex given by PDBID, residue group in r_group, ref SKEMPI) is listed as 1.80 kJ. Moreover, in test [3], the rosetta_ddG_kJ is 0.146 kcal/mol. Moreover, the ref2015_ddG_kJ in test [4] is 0.0406 kcal/mol.
Regarding 1A22 LA6A, in test [1] (ref SKEMPI), the “sk_class (class of the SKEMPI experimental ΔΔG)” value is “Neutral (neutral (little effect) 4.184 kJ/mol < ΔΔG > −4.184 kJ/mol)”. Besides, the sk_class entry in test [1] (setting [5]) was “Neutral (neutral (little effect) 4.184 kJ/mol < ΔΔG > −4.184 kJ/mol)”. Further, in test [2] (setting [6]), the sk_ddG_kJ is 0.6 kcal/mol. Moreover, the “sk_ddG_kJ (SKEMPI experimental ΔΔG of binding, mutation to alanine)” value in test [2] (ref SKEMPI) is reported as 2.51 kJ. Also, the rosetta_ddG_kJ in test [3] was -0.0669 kcal/mol. In test [4], the ref2015_ddG_kJ is -0.184 kcal/mol.
As for `CC[C@H](C)[C@H](NC(=O)[C@H](CCC(=O)O)NC(=O)[C@H](CC(N)=O)NC(=O)[C@H](CC(=O)O)NC(=O)COCCOCCNC(=O)c1ccc2c(c1)C(=O)OC21c2ccc(O)cc2Oc2cc(O)ccc21)C(=O)N[C@@H](CCC(=O)O)C(=O)N[C@H](C(=O)N[C@H](C(=O)N[C@H](C(=O)N[C@H](C(=O)N[C@@H](C)C(=O)N[C@@H](CCC(=O)O)C(=O)N[C@@H](CCCCN)C(=O)N[C@@H](CCCCN)C(N)=O)C(C)C)[C@@H](C)CC)[C@@H](C)CC)C(C)C` [FAM-W2714A SIM] ({5FAM-AEEA}-DNEIEVIIVAEKK-NH2), on SUMO-1, the “Experimental competition (ΔΔG on mutation of the residue to alanine)” value worked out at 8.1 and the “Experimental competition (ΔΔG)” value amounted to 1.94 kcal/mol.
Turning to 1A22 TA3A, the sk_class result in test [1] (class of the SKEMPI experimental ΔΔG) and in test [1] (setting [5]) was “Neutral (neutral (little effect) 4.184 kJ/mol < ΔΔG > −4.184 kJ/mol)” throughout. Besides, in test [2] (setting [6]), the sk_ddG_kJ was -0.0502 kcal/mol. The “sk_ddG_kJ (SKEMPI experimental ΔΔG)” value in test [2] (single mutation to alanine, complex given by PDBID, mutation by mut_pdb, ref SKEMPI) is reported as -0.21 kJ. Besides, the rosetta_ddG_kJ in test [3] was -0.0406 kcal/mol. Moreover, the ref2015_ddG_kJ in test [4] was 0.0717 kcal/mol.
In the case of `CC[C@H](C)[C@H](NC(=O)[C@H](CCC(=O)O)NC(=O)[C@H](CC(N)=O)NC(=O)[C@H](CC(=O)O)NC(=O)COCCOCCNC(=O)c1ccc2c(c1)C(=O)OC21c2ccc(O)cc2Oc2cc(O)ccc21)C(=O)N[C@@H](CCC(=O)O)C(=O)N[C@H](C(=O)N[C@H](C(=O)N[C@@H](C)C(=O)N[C@H](C(=O)N[C@@H](Cc1c[nH]c2ccccc12)C(=O)N[C@@H](CCC(=O)O)C(=O)N[C@@H](CCCCN)C(=O)N[C@@H](CCCCN)C(N)=O)C(C)C)[C@@H](C)CC)C(C)C` [FAM-I2712A SIM] ({5FAM-AEEA}-DNEIEVIAVWEKK-NH2), at SUMO-1, the “Experimental competition (ΔΔG on mutation of the residue to alanine)” value was determined as 5.7 and the “Experimental competition (ΔΔG)” value came out at 1.36 kcal/mol.
Regarding Ac-EAQTRL-NH2 [CO2H-CONH2 GKAP], at SHANK-PDZ, the “Experimental ΔΔG, direct titration” value was 2.72 kcal/mol; the “H (fitted ITC data)” value is listed as -1.57 ± 0.18 kcal/mol; the “S (fitted ITC data)” value is 11.2 cal/molK.
With `CC[C@H](C)[C@H](NC(=O)[C@H](C)NC(=O)[C@H](CC(N)=O)NC(=O)[C@H](CC(=O)O)NC(=O)COCCOCCNC(=O)c1ccc2c(c1)C(=O)OC21c2ccc(O)cc2Oc2cc(O)ccc21)C(=O)N[C@@H](CCC(=O)O)C(=O)N[C@H](C(=O)N[C@H](C(=O)N[C@H](C(=O)N[C@H](C(=O)N[C@@H](Cc1c[nH]c2ccccc12)C(=O)N[C@@H](CCC(=O)O)C(=O)N[C@@H](CCCCN)C(=O)N[C@@H](CCCCN)C(N)=O)C(C)C)[C@@H](C)CC)[C@@H](C)CC)C(C)C` [FAM-E2707A SIM] ({5FAM-AEEA}-DNAIEVIIVWEKK-NH2), at SUMO-1, the “Experimental competition (ΔΔG on mutation of the residue to alanine)” value is given as 1.7 and the “Experimental competition (ΔΔG)” value stood at 0.406 kcal/mol.
In the case of `CC[C@H](C)[C@H](NC(=O)[C@H](C)NC(=O)[C@H](CCC(=O)O)NC(=O)[C@@H](NC(=O)[C@H](CCC(=O)O)NC(=O)[C@H](CC(N)=O)NC(=O)[C@H](CC(=O)O)NC(=O)COCCOCCNC(=O)c1ccc2c(c1)C(=O)OC21c2ccc(O)cc2Oc2cc(O)ccc21)[C@@H](C)CC)C(=O)N[C@H](C(=O)N[C@H](C(=O)N[C@@H](Cc1c[nH]c2ccccc12)C(=O)N[C@@H](CCC(=O)O)C(=O)N[C@@H](CCCCN)C(=O)N[C@@H](CCCCN)C(N)=O)C(C)C)[C@@H](C)CC` [FAM-V2710A SIM] ({5FAM-AEEA}-DNEIEAIIVWEKK-NH2), on SUMO-1, the “Experimental competition (ΔΔG on mutation of the residue to alanine)” value was 4.7 and the “Experimental competition (ΔΔG)” value stood at 1.12 kcal/mol.
For 1A22 IA4A, the “sk_class (class of the SKEMPI experimental ΔΔG)” value in test [1] (ref SKEMPI) was “Neutral (neutral (little effect) 4.184 kJ/mol < ΔΔG > −4.184 kJ/mol)”. In addition, the sk_class result in test [1] (setting [5]) is “Neutral (neutral (little effect) 4.184 kJ/mol < ΔΔG > −4.184 kJ/mol)”. The sk_ddG_kJ in test [2] (setting [6]) was 0.411 kcal/mol. Besides, in test [2] (ref SKEMPI), the “sk_ddG_kJ (SKEMPI experimental ΔΔG of binding, mutation to alanine)” value is 1.72 kJ. Besides, the rosetta_ddG_kJ in test [3] was -0.124 kcal/mol. Besides, in test [4], the ref2015_ddG_kJ is -0.201 kcal/mol.
Ac-EAQTRL [GKAP]: at SHANK-PDZ, the “H (fitted ITC data)” value is given as -6.54 ± 0.04 kcal/mol and the “S (fitted ITC data)” value came out at 3.49 cal/molK.

B1: 1DAN DT44A (protein, UniProt P13726 33-251, looked up, variant D44A)
extracellular domain: SGTTNTVAAYNLTWKSTNFKTILEWEPKPVNQVYTVQISTKSGAWKSKCFYTTDTECDLTDEIVKDVKQTYLARVFSYPAGNVESTGSAGEPLYENSPEFTPYLETNLGQPTIQSFEQVGTKVNVTVEDERTLVRRNNTFLSLRDVFGKDLIYTLYYWKSSSSGKKTAKTNTNEFLIDVDKGENYCFSVQAVIPSRTVNRKSTDSPVECMGQEKGEFRE
modifications: extracellular domain
Take B1: in test [1] (setting [7]), the sk_class result was “Positive (positive (a hot residue) ΔΔG ≥ 4.184 kJ/mol)”. Further, the sk_ddG_kJ in test [2] (setting [8]) was 10.00 kJ.

B2: 1DAN RU131A (protein, UniProt P13726 33-251, looked up, variant R131A)
extracellular domain: B1 extracellular domain with A44D, R131A
modifications: extracellular domain
Regarding B2, in test [1] (setting [7]), the sk_class entry is “Neutral (neutral (little effect) 4.184 kJ/mol < ΔΔG > −4.184 kJ/mol)”. Besides, in test [2] (setting [8]), the sk_ddG_kJ is given as 0.00 kJ.

B3: 1DAN DU129A (protein, UniProt P13726 33-251, looked up, variant D129A)
extracellular domain: B1 extracellular domain with A44D, D129A
modifications: extracellular domain
As to B3, the sk_class result in test [1] (setting [7]) is given as “Neutral (neutral (little effect) 4.184 kJ/mol < ΔΔG > −4.184 kJ/mol)”. Moreover, the sk_ddG_kJ in test [2] (setting [8]) is -0.08 kJ.

B4: 1DAN KT46A (protein, UniProt P13726 33-251, looked up, variant K46A)
extracellular domain: B1 extracellular domain with A44D, K46A
modifications: extracellular domain
As to B4, in test [1] (setting [7]), the sk_class entry was “Neutral (neutral (little effect) 4.184 kJ/mol < ΔΔG > −4.184 kJ/mol)”. In addition, the sk_ddG_kJ in test [2] (setting [8]) is reported as 1.00 kJ.

B5: 1DAN KU122A (protein, UniProt P13726 33-251, looked up, variant K122A)
extracellular domain: B1 extracellular domain with A44D, K122A
modifications: extracellular domain
With B5, the sk_class result in test [1] (setting [7]) is “Neutral (neutral (little effect) 4.184 kJ/mol < ΔΔG > −4.184 kJ/mol)”. In addition, in test [2] (setting [8]), the sk_ddG_kJ is listed as -0.50 kJ.

B6: 1DAN KT48A (protein, UniProt P13726 33-251, looked up, variant K48A)
extracellular domain: B1 extracellular domain with A44D, K48A
modifications: extracellular domain
With B6, the sk_class result in test [1] (setting [7]) is on record as “Neutral (neutral (little effect) 4.184 kJ/mol < ΔΔG > −4.184 kJ/mol)”. The sk_ddG_kJ in test [2] (setting [8]) is recorded as 1.76 kJ.

B7: 1DAN EU128A (protein, UniProt P13726 33-251, looked up, variant E128A)
extracellular domain: B1 extracellular domain with A44D, E128A
modifications: extracellular domain
For B7, the sk_class entry in test [1] (setting [7]) is “Neutral (neutral (little effect) 4.184 kJ/mol < ΔΔG > −4.184 kJ/mol)”. Moreover, in test [2] (setting [8]), the sk_ddG_kJ is 0.38 kJ.

B8: 1DAN EU99A (protein, UniProt P13726 33-251, looked up, variant E99A)
extracellular domain: B1 extracellular domain with A44D, E99A
modifications: extracellular domain
In the case of B8, the sk_class entry in test [1] (setting [7]) is “Neutral (neutral (little effect) 4.184 kJ/mol < ΔΔG > −4.184 kJ/mol)”. The sk_ddG_kJ in test [2] (setting [8]) is -0.75 kJ.

B9: 1DAN DT58A (protein, UniProt P13726 33-251, looked up, variant D58A)
extracellular domain: B1 extracellular domain with A44D, D58A
modifications: extracellular domain
As to B9, in test [1] (setting [7]), the sk_class result is on record as “Positive (positive (a hot residue) ΔΔG ≥ 4.184 kJ/mol)”. In addition, the sk_ddG_kJ in test [2] (setting [8]) is recorded as 8.37 kJ.
